Reference: US20020122813A1, “Insect attractants” (priority 1999, published 2002)
“Also recorded” adds a separate entry of the source.

Experiments:
Aedes aegypti = assay: wind tunnel landing bioassay on heated glass cylinders with filter papers; assay type: in vivo; details: in water at 1 μg/μl; FIG. 4
Protocol: Trials used either Aedes aegypti or the Tanzanian KWA strain of Anopheles gambiae s.s., both obtained from the London School of Hygiene and Tropical Medicine. The rearing and bioassay rooms were maintained at 27° C. ±2° and 70% RH ±10%. The rearing room was kept on a 12/12 light dark cycle of 170 Wm^−2 and 0.3 Wm^−2 respectively with a 30 minute dusk period of 0.5 Wm^−2 at the day night interface.
To circumvent this problem we concentrated on investigating the landing responses of An gambiae s.s. on heated glass cylinders treated with sweat and sweat extracts. The bioassay was conducted in a wind tunnel^9 that was connected to 2 identical flight chambers, stainless steel frames 1.0 m long, covered in thin gauge plastic tubing and sealed at both ends with mosquito netting, FIG. 1. Twenty, 5-8 day old An gambiae s.s. females were introduced into each flight chamber. The mosquitoes were activated with 2 pulses of carbon dioxide, diluted with filtered air to give pulses of 0.1% above background. Activated mosquitoes flew upwind and approached heated (34° C., human skin temperature) glass cylinders to which strips of filter paper were attached. The number of mosquitoes landing per minute on each filter paper was recorded for 10 min by infra-red sensitive video cameras situated downwind of the flight chambers. All bioassays began on the 3rd hour of the night period (21.00 h). […]

Anopheles gambiae s.s. = assay: as above; assay type: in vivo; details: for landing response compared to water control, comparative bioassay of α-oxo-carboxylic acids: FIG. 5, 6 replicates
Protocol: Trials used either Aedes aegypti or the Tanzanian KWA strain of Anopheles gambiae s.s., both obtained from the London School of Hygiene and Tropical Medicine. The rearing and bioassay rooms were maintained at 27° C. ±2° and 70% RH ±10%. […] To circumvent this problem we concentrated on investigating the landing responses of An gambiae s.s. on heated glass cylinders treated with sweat and sweat extracts. The bioassay was conducted in a wind tunnel^9 that was connected to 2 identical flight chambers, stainless steel frames 1.0 m long, covered in thin gauge plastic tubing and sealed at both ends with mosquito netting, FIG. 1. Twenty, 5-8 day old An gambiae s.s. females were introduced into each flight chamber. The mosquitoes were activated with 2 pulses of carbon dioxide, diluted with filtered air to give pulses of 0.1% above background. Activated mosquitoes flew upwind and approached heated (34° C., human skin temperature) glass cylinders to which strips of filter paper were attached. […] All bioassays began on the 3rd hour of the night period (21.00 h). To collect sweat, strips of filter paper were strapped around the leg, just above the ankle, of a human volunteer for 24 h. A strip of sweat impregnated filter paper was placed onto one cylinder and a filter paper dampened with […] of distilled water was placed onto the second, the control, cylinder The bioassay was repeated 6 times, the position of the sweat and the control filter papers alternated between bioassays. […] The response to the sweat declined during the bioassay, FIG. 3A, and is probably due to the evaporation of behaviourally active volatiles.

Ae aegypti = details: structural activity relationship study of lactic acid analogues; cited from earlier work

For `CCCC(=O)C(=O)O` [2-oxopentanoic acid], the “landing response (significance)” value (Aedes aegypti) was “elicited significant levels of landings; also recorded: did elicit significant levels of landings”, the “landing response compared to water control, comparative bioassay of α-oxo-carboxylic acids” value (Anopheles gambiae s.s.) was “greatest response” and the “time of peak of landing response” value (Anopheles gambiae s.s.; during 10 min bioassay) was 4 min. For the same molecule, the “total number of landings (TNL)” value (Anopheles gambiae s.s.; in water at 1 μg/μl vs water control) was 352, the “landing response compared to control (significance)” value (Anopheles gambiae s.s.; in water at 1 μg/μl vs water control, P<0.001) was “did elicit significant levels of landings” and the “attractiveness relative to lactic acid” value (Ae aegypti) was “as attractive as lactic acid”.
For `CC(C)C(=O)C(=O)O` [3-methyl,2-oxobutanoic acid], the “landing response compared to water control, comparative bioassay of α-oxo-carboxylic acids” value (Anopheles gambiae s.s.) was “did elicit significant levels of landings”.
In the case of `CCO` [ethanol], the “total number of landings (TNL)” value (Anopheles gambiae s.s.; ethanol vs blank control) is reported as 141 and the “landing response compared to control (significance)” value (Anopheles gambiae s.s.; ethanol vs blank control, P>0.05) is reported as “not a significant difference”.
With `CC(O)C(=O)O` (stereo not drawn) [lactic acid, L(+) lactic acid (2-hydroxypropanoic), reference compound] the “total number of landings (TNL)” value (Anopheles gambiae s.s.; in ethanol at 0.2 μg/μl vs ethanol control) was 167 and the “landing response compared to control (significance)” value (Anopheles gambiae s.s.; in ethanol at 0.2 μg/μl vs ethanol control, P>0.05) was “did not elicit significant levels of landings”.
With `CCC(=O)C(=O)O` [oxobutanoic acid] the “landing response compared to water control, comparative bioassay of α-oxo-carboxylic acids” value (Anopheles gambiae s.s.) was “did elicit significant levels of landings”.
In the case of `CC(=O)C(=O)O` [oxopropanoic acid], the “landing response compared to water control, comparative bioassay of α-oxo-carboxylic acids” value (Anopheles gambiae s.s.) is reported as “did elicit significant levels of landings”.
